From PubChem BioAssay (NCI)
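Results reflect a 48-hour exposure of cells in 96-well plates to compound at five concentrations. The concentration for 50% growth inhibition is given as GI50. TGI: total growth inhibition.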

Experiments:
Test in all cases: growth of human tumour cells (NCI), 48 h
NCI-H522 lung = test system: NCI-H522 lung
CCRF-CEM leukemia = test system: CCRF-CEM leukemia
786-0 renal = test system: 786-0 renal
MDA-MB-435 = test system: MDA-MB-435
UACC-62 melanoma = test system: UACC-62 melanoma
SR leukemia = test system: SR leukemia
UO-31 renal = test system: UO-31 renal
SF-295 CNS = test system: SF-295 CNS
HOP-92 NSCLC = test system: HOP-92 NSCLC
NCI-H226 lung = test system: NCI-H226 lung
HCC-2998 colon = test system: HCC-2998 colon
TK-10 renal = test system: TK-10 renal
NCI-H460 lung = test system: NCI-H460 lung
NCI/ADR-RES ovarian = test system: NCI/ADR-RES ovarian
KM12 colon = test system: KM12 colon
A498 renal = test system: A498 renal
A549 NSCLC = test system: A549 NSCLC
HT29 colon = test system: HT29 colon
SK-MEL-5 melanoma = test system: SK-MEL-5 melanoma
MDA-MB-468 breast = test system: MDA-MB-468 breast
RXF 393 renal = test system: RXF 393 renal
HOP-62 NSCLC = test system: HOP-62 NSCLC
UACC-257 melanoma = test system: UACC-257 melanoma
MALME-3M melanoma = test system: MALME-3M melanoma
OVCAR-4 ovarian = test system: OVCAR-4 ovarian
OVCAR-5 ovarian = test system: OVCAR-5 ovarian
HL-60(TB) leukemia = test system: HL-60(TB) leukemia

**Q.** Which results are given for `CC[C@@]1(O)C(=O)OCc2c1cc1n(c2=O)Cc2c-1nc1cc(F)c(C)c3c1c2[C@@H](N)CC3`?
**A.** GI50 (NCI-H522 lung): < 10 nM; TGI (NCI-H522 lung): 37.9 nM; GI50 (CCRF-CEM leukemia): < 10 nM; GI50 (786-0 renal): < 10 nM; TGI (786-0 renal): < 37 nM; GI50 (MDA-MB-435): < 10 nM; TGI (MDA-MB-435): 625 nM; GI50 (UACC-62 melanoma): < 10 nM; TGI (UACC-62 melanoma): 14.6 nM; GI50 (SR leukemia): < 10 nM; TGI (SR leukemia): > 100000 nM; GI50 (UO-31 renal): < 10 nM; TGI (UO-31 renal): 48.1 nM; GI50 (SF-295 CNS): < 10 nM; TGI (SF-295 CNS): 42.5 nM; GI50 (HOP-92 NSCLC): < 10 nM; TGI (HOP-92 NSCLC): 192 nM; GI50 (NCI-H226 lung): < 10 nM; TGI (NCI-H226 lung): < 19.7 nM; GI50 (HCC-2998 colon): 12.9 nM; TGI (HCC-2998 colon): 129 nM; GI50 (TK-10 renal): 61.1 nM; TGI (TK-10 renal): 3180 nM; GI50 (NCI-H460 lung): < 10 nM; TGI (NCI-H460 lung): 434 nM; GI50 (NCI/ADR-RES ovarian): < 10 nM; TGI (NCI/ADR-RES ovarian): 21.3 nM; GI50 (KM12 colon): 18.4 nM; TGI (KM12 colon): > 100000 nM; GI50 (A498 renal): < 10.7 nM; TGI (A498 renal): 187 nM; GI50 (A549 NSCLC): < 10 nM; TGI (A549 NSCLC): 456 nM; GI50 (HT29 colon): < 10 nM; TGI (HT29 colon): 1040 nM; GI50 (SK-MEL-5 melanoma): < 10 nM; TGI (SK-MEL-5 melanoma): < 10 nM; GI50 (MDA-MB-468 breast): < 10 nM; TGI (MDA-MB-468 breast): < 10 nM; GI50 (RXF 393 renal): < 10 nM; TGI (RXF 393 renal): < 13.5 nM; GI50 (HOP-62 NSCLC): < 10 nM; TGI (HOP-62 NSCLC): < 49.4 nM; GI50 (UACC-257 melanoma): 10.3 nM; TGI (UACC-257 melanoma): 166 nM; GI50 (MALME-3M melanoma): 11 nM; TGI (MALME-3M melanoma): 247 nM; GI50 (OVCAR-4 ovarian): 32.5 nM; TGI (OVCAR-4 ovarian): > 100000 nM; GI50 (OVCAR-5 ovarian): < 12.4 nM; TGI (OVCAR-5 ovarian): 801 nM; GI50 (HL-60(TB) leukemia): < 10 nM
